Measurements published in patent US4873346A, “Substituted benzothiazoles, benzimidazoles, and benzoxazoles” (The Upjohn Company, priority 1985, dated 1989).
Counter-ions that a name gives are not always drawn.

Legend:
mucus secretion = assay: canine tracheal secretion model (inhibitory effect on mucus secretion); type: in vivo
Description: Several of the compounds of the present invention were also tested for their inhibitory effect on mucus secretion in the canine tracheal secretion model.

lipoxygenase = lipoxygenase inhibition, oxygen uptake of washed human platelets after arachidonic acid; type: cell-based
Description: Some ot the compounds of the present invention were also tested for lipoxygenase inhibition. Arachidonic acid is added to washed human platelets and the oxygen uptake is measured using oxygraph cells. A decrease of oxygen uptake versus the control cell indicates inhibition of lipoxygenase. For a full description of the procedure see, Wallach, et al., Biochim, Biophys. Acta. 231:445 (1976).

SRS-A formation = assay: SRS-A inhibition in rat mononuclear cells challenged with calcium ionophore; type: cell-based; details: cysteine
Description: This test is conducted in rat mononuclear cells incubated in the presence of cysteine and challenged with a calcium ionophore (which induces SRS-A formation).

With `C=CCNc1nc2ccc(O)cc2s1` [2-(2-propenylamino)-6-benzothiazolol, 2-(2-Propenylamino)-6-benzothiazolol] the “inhibition of mucus secretion (in words)” value (mucus secretion) was “caused inhibition of mucus secretion”, the “inhibition of the lipoxygenase system (in words)” value (lipoxygenase) was “active” and the “inhibition of the leukotriene system (in words)” value (SRS-A formation) was “active”.

In the case of `C=CCCCCSc1nc2ccc(O)cc2s1.O=C(O)/C=C\C(=O)O` [2-(5-hexenylthio)-6-benzothiazolol maleic acid salt], the “inhibition of mucus secretion (in words)” value (mucus secretion) was “caused inhibition”.

With `C=CCCCCSc1nc2ccc(O)cc2[nH]1` [2-(5-hexenylthio)-H-benzimidazol-6-ol, 2-(5-Hexenylthio)-1H-benzimidazol-6-ol] the “inhibition of mucus secretion (in words)” value (mucus secretion) was “caused inhibition”.

In the case of `CCN(CC)CCCNc1nc2ccc(O)cc2s1.Cl.Cl` [2-[[3-(Diethylamino)propyl]amino]-6-benzothiazolol Dihydrochloride], the “inhibition of mucus secretion (in words)” value (mucus secretion) was “caused inhibition”.

In the case of `CCN(CC)CCCNc1nc2ccc(O)cc2s1` [2-[[3-(Diethylamino)propyl]amino]-6-benzothiazolol, hydroquinone dihydrochloride salt], the “inhibition of mucus secretion (in words)” value (mucus secretion) was “caused inhibition”.

With `COC(=O)CCCCCNc1nc2ccc(O)cc2s1` [6-[(6-hydroxy-2-benzothiazolyl)aminohexanoic acid methyl ester] the “inhibition on Indomethacin blocked/Arachidonic Acid (AA) induced mucus secretion” value (mucus secretion; Indomethacin blocked/AA induced) was 100%, the “inhibition on baseline mucus secretion” value (mucus secretion; baseline) was 21.8% and the “inhibition on hypoxia mucus secretion” value (mucus secretion; hypoxia) was 63.4%.

In the case of `COC(=O)CCCCCSc1nc2ccc(NC(=O)CCC(=O)O)cc2s1` [6-[[6-[(3-Carboxy-1-oxopropyl)amino]-2-benzothiazolyl]thio]hexanoic acid methyl ester, tromethamine salt], the “inhibition of mucus secretion (in words)” value (mucus secretion) was “caused inhibition”.
